# Literature values in patent publication US20110070315A1 (priority 2009, published 2011).
# Tested on: hair loss
smiles,measurement,value
"Cl.NCCCC[C@H](N)C(=O)O [L—Lysine HCl, L-Lysine HCl]",decreases hair loss,one half
